“And” between values parts separate entries of the source, which are not always exact repeats. Identical values can stand only once.
Columns and labels:
Type in all cases: cell-based
DU145 [1] = assay: In vitro colorimetric cell death assay (MTT); conditions: DU145, MTT, 48 hours; read-out: IC 50
Protocol: (§1) It's an in vitro colorimetric assay for assessing cell viability where the cells are grown in Two-dimensional surface.
(§2) An exemplary procedure for the assay follows. Cancer cells and normal cells were plated in a 96 well plate as per predetermined plating efficiency. The plate was incubated for 24 hours in a 5% CO2 atmosphere at 37 degrees Celsius, a range of concentrations of the compounds I-1, I-2 and I-3 as well as cisplatin (known chemotherapeutic agents) were added to the separate wells, the plate was incubated further for 48 hours in a 5% CO2 atmosphere, the plate was centrifuged twice at 3000 rpm for 3 minutes, the supernatant fluid was discarded, 100 uL of 0.5 mg/mL MTT solution was added and the plate was incubated for 4 hours in a 5% CO2 atmosphere at 37 degrees Celsius. The plate was then centrifuged twice at 3000 rpm for 3 minutes, supernatant, was aspirated very carefully, 200 uL DMSO was added to each well to solubilize MTT crystals and mixed well by shaking the plate, the plate was incubated for 10 minutes in a 5% CO2 atmosphere at 37 degrees Celsius, the plate placed on the shaker of an ELISA plate reader and the absorbance at 570 nm was measured, then the percentage of viable cells remaining was calculated by first subtracting the background absorbance then comparing to the absorbance of a non-drug-treated cell sample, and the results were plotted on a graph to determine the IC50 for the compounds and cisplatin.

MDAMB231 = assay: In vitro colorimetric cell death assay (MTT); conditions: 48 hours
Protocol: as §1, §2

LNCaP [2] = assay: In vitro colorimetric cell death assay (MTT); conditions: 48 hours
Protocol: as §1, §2

L 929 = assay: In vitro colorimetric cell death assay (MTT); conditions: L 929, MTT, 48 hours; read-out: IC 50
Protocol: as §1, §2

T47D [3] = assay: In vitro colorimetric cell death assay (MTT); conditions: 48 hours
Protocol: as §1, §2

PC3 [4] = assay: In vitro colorimetric cell death assay (MTT); conditions: 48 hours
Protocol: as §1, §2

[5] = test system: MCF10A (normal breast cell line); assay: In vitro colorimetric cell death assay (MTT); conditions: 48 hours, read-out: IC 50
Protocol: as §1, §2

MCF-7 [6] = assay: In vitro colorimetric cell death assay (MTT); conditions: MCF-7, MTT, 48 hours
Protocol: as §1, §2

DU145 [7] = assay: In vitro soft agar colony forming growth assay; conditions: one week
Protocol: (§3) The Soft Agar Assay for Colony Formation is considered the most stringent assay for detecting malignant transformation of cells. In this assay the cells are cultured in medium with low percentage of agar.
(§4) An exemplary procedure for the assay follows.

LNCaP [8] = assay: In vitro soft agar colony forming growth assay; conditions: one week
Protocol: as §3, §4

HeLa = assay: In vitro soft agar colony forming growth assay; conditions: soft agar, one week, read-out: IC 50
Protocol: as §3, §4

T47D [9] = assay: In vitro soft agar colony forming growth assay; conditions: one week
Protocol: as §3, §4

PC3 [10] = assay: In vitro soft agar colony forming growth assay; conditions: one week
Protocol: as §3, §4

L929 = assay: In vitro soft agar colony forming growth assay; conditions: L929, soft agar, one week; read-out: IC 50
Protocol: as §3, §4

MCF-7 [11] = assay: In vitro soft agar colony forming growth assay; conditions: MCF-7, soft agar, one week
Protocol: as §3, §4

breast cancer cells T47D = assay: In vitro 3D primary sphere forming stem cell assay
Protocol: (§5) This assay measures the ability of cancer stem cells to form spheres in a serum free media where the spheres are in a suspended form. Through this assay we evaluated the potency of the compounds of the invention to kill cancer stem cells in comparison with the known chemotherapeutic agent Cisplatin.
(§6) An exemplary procedure for the assay follows. Cells were grown in three dimensions on a plastic substrate, harvested in suspension in serum-free media, then the cells in the sample were trypsinized and a single cell suspension was formed by passing through a cell strainer. The cells were diluted according to the predetermined plating efficiency for the cell line being studied by suspending the cells in stem cell culture medium. 100 uL of this suspension was added into each well of a 96 well suspension plate, and the plate was incubated at 37 degrees Celsius in 5% CO2 atmosphere for 24 hours, then 2 uL of appropriate concentrations of the compounds of the invention and cisplatin were added into each respective well along with 100 uL of stem cell culture medium, and the plates were incubated at 37 degrees Celsius under 5% CO2 atmosphere for 72 hours. 2.5 uL of the compounds of the invention and cisplatin were added to each respective well along with 50 uL of stem cell culture medium and then the plates were incubated at 37 degrees Celsius under 5% CO2 atmosphere for 72 hours. 3 uL of appropriate concentrations of the compounds of the invention and cisplatin were added to each respective well along with 50 uL of stem cell culture medium and then the plates were incubated at 37 degrees Celsius under 5% CO2 atmosphere for 72 hours, then the spheres formed were observed under a microscope then counted and scored by size.
(§7) Results of the in vitro 3D sphere forming stem cell assay are set forth in a tabular manner. The number in each box is the total number of spheres formed in the presence of either cisplatin or compound I-2 or compound I-3 at each drug concentration. GC refers to a growth control performed in the absence of drug or solvent (DMSO). GCD refers to a growth control performed in the absence of drug, but in the presence of DMSO.

[12] = test system: breast cancer cells MDA MB 231; assay: In vitro 3D primary sphere forming stem cell assay
Protocol: as §5, §6, §7

[13] = test system: prostate cancer cells DU145; assay: In vitro 3D primary sphere forming stem cell assay
Protocol: as §5, §6, §7

[14] = test system: breast cancer cells MCF-7; assay: In vitro 3D primary sphere forming stem cell assay
Protocol: as §5, §6, §7

[15] = test system: prostate cancer cells LNCaP; assay: In vitro 3D primary sphere forming stem cell assay
Protocol: as §5, §6, §7

[16] = test system: prostate cancer cells PC3; assay: In vitro 3D primary sphere forming stem cell assay
Protocol: as §5, §6, §7

## N.N.[Cl][Pt][Cl] [Cisplatin, cisplatin, reference compound]
DU145 [1]
  IC50: 56.2 µM
MDAMB231
  IC50: 82.3 µM
LNCaP [2]
  IC50: 64.6 µM
L 929
  IC50: 46.7 µM
T47D [3]
  IC50: 51.3 µM
PC3 [4]
  IC50: 40.1 µM
[5]
  IC50: 36.3 µM
MCF-7 [6]
  IC50: 4.75 µM
DU145 [7]
  IC50: 56.2 µM
LNCaP [8]
  IC50: 64.6 µM
HeLa
  IC50: 39.4 µM
T47D [9]
  IC50: 51.3 µM
PC3 [10]
  IC50: 40.1 µM
L929
  IC50: 8.7 µM
MCF-7 [11]
  IC50: 37.1 µM
Breast cancer cells T47D; final conc. 0.125 μM
  # of 3D Primary Spheres Formed of Cells T47D (±SD): 105(±10)
Breast cancer cells T47D; final conc. 1.25 μM
  # of 3D Primary Spheres Formed of Cells T47D (±SD): 100(±7)
Breast cancer cells T47D; final conc. 12.5 μM
  # of 3D Primary Spheres Formed of Cells T47D (±SD): 76(±25)
Breast cancer cells T47D; final conc. 125 μM
  # of 3D Primary Spheres Formed of Cells T47D (±SD): 51(±5)
Breast cancer cells T47D; final conc. 1250 μM
  # of 3D Primary Spheres Formed of Cells T47D (±SD): 0(±0)
[12]; final conc. 0.125 μM
  # of 3D Primary Spheres Formed of Cells MDA MB231 (±SD): 124(±7) and 87(±5)
[12]; final conc. 1.25 μM
  # of 3D Primary Spheres Formed of Cells MDA MB231 (±SD): 113(±11) and 79(±2)
[12]; final conc. 12.5 μM
  # of 3D Primary Spheres Formed of Cells MDA MB231 (±SD): 112(±18) and 78(±5)
[13]; final conc. 0.125 μM
  # of 3D Primary Spheres Formed of Cells DU145 (±SD): 84(±4)
[13]; final conc. 1.25 μM
  # of 3D Primary Spheres Formed of Cells DU145 (±SD): 70(±7)
[13]; final conc. 12.5 μM
  # of 3D Primary Spheres Formed of Cells DU145 (±SD): 48(±6)
[13]; final conc. 125 μM
  # of 3D Primary Spheres Formed of Cells DU145 (±SD): 35(±4)
[13]; final conc. 1250 μM
  # of 3D Primary Spheres Formed of Cells DU145 (±SD): 11(±3)
[14]; final conc. 0.125 μM
  # of 3D Primary Spheres Formed of Cells MCF-7 (±SD): 76(±5)
[14]; final conc. 1.25 μM
  # of 3D Primary Spheres Formed of Cells MCF-7 (±SD): 77(±5)
[14]; final conc. 12.5 μM
  # of 3D Primary Spheres Formed of Cells MCF-7 (±SD): 68(±7)
[14]; final conc. 125 μM
  # of 3D Primary Spheres Formed of Cells MCF-7 (±SD): 61(±7)
[14]; final conc. 1250 μM
  # of 3D Primary Spheres Formed of Cells MCF-7 (±SD): 37(±8)
[15]; final conc. 0.125 μM
  # of 3D Primary Spheres Formed of Cells LNCaP (±SD): 142(±12)
[15]; final conc. 1.25 μM
  # of 3D Primary Spheres Formed of Cells LNCaP (±SD): 144(±8)
[15]; final conc. 12.5 μM
  # of 3D Primary Spheres Formed of Cells LNCaP (±SD): 108(±10)
[15]; final conc. 125 μM
  # of 3D Primary Spheres Formed of Cells LNCaP (±SD): 54(±7)
[15]; final conc. 1250 μM
  # of 3D Primary Spheres Formed of Cells LNCaP (±SD): 9(±2)
[16]; final conc. 0.125 μM
  # of 3D Primary Spheres Formed of Cells PC3 (±SD): 125(±7)
[16]; final conc. 1.25 μM
  # of 3D Primary Spheres Formed of Cells PC3 (±SD): 109(±12)
[16]; final conc. 12.5 μM
  # of 3D Primary Spheres Formed of Cells PC3 (±SD): 80(±6)
[16]; final conc. 125 μM
  # of 3D Primary Spheres Formed of Cells PC3 (±SD): 67(±5)
[16]; final conc. 1250 μM
  # of 3D Primary Spheres Formed of Cells PC3 (±SD): 55(±5)

Reference: patent US20150328245A1, “Agents for Eliminating Tumour-Initiating Cells” (priority 2012, published 2015)
